Tests used:
[1] = system: metastatic or surgically unresectable urothelial carcinoma (UC); assay: Single-arm phase II study of nivolumab (CheckMate 275), TMB analysis; type: in vivo, human
Description: Tumor DNA from pretreatment archival tumor tissue and matched whole blood samples was profiled by whole exome sequencing. TMB was defined as the total number of missense somatic mutations per tumor, and was evaluated as a continuous variable and by tertiles (missense count: high 167, medium 85-166, low <85). Cox models were used to explore the association between TMB and progression-free survival (PFS) and overall survival (OS); and logistic regression for objective response rate (ORR). Tumor PD-ligand 1 (PD-L1) expression was assessed by Dako PD-L1 immunohistochemistry 28-8 assay and was categorized as <1%.

[2] = system: stage IV or recurrent NSCLC; assay: Multi-part phase 3 study of first-line nivolumab plus ipilimumab versus chemotherapy: efficacy; type: in vivo, human
Description: Patients had chemotherapy-naive, stage IV or recurrent NSCLC.
Adult patients with PD-L1-histologically confirmed squamous or nonsquamous stage IV/recurrent NSCLC and Eastern Cooperative Oncology Group (ECOG) performance status (Oken M. M., et al. Am J Clin Oncol 5:649-55 (1982)) of 0 or 1 who had received no prior systemic anticancer therapy as primary therapy for advanced or metastatic disease were eligible for the study. All patients underwent imaging to screen for brain metastases. Patients with known EGFR mutations or ALK translocations sensitive to targeted therapy, an autoimmune disease, or untreated central nervous system metastases were excluded.
All treatments continued until disease progression, unacceptable toxicity, or completion per protocol (up to 2 years for immunotherapy). Crossover between treatment arms within the study was not permitted.
Part 1 of this study had two co-primary endpoints.
Hazard ratios of PFS with associated two-sided confidence intervals were estimated using an unstratified Cox proportional hazard model, with treatment group as a single covariate. A multivariate analysis was prespecified in patients with TMB≥10 mutations/Mb to assess the influence of known prognostic baseline factors on PFS. […] Survival curves were estimated using Kaplan-Meier methodology.

PD-1 = molecular target: T1, PD-1 (Homo sapiens, UniProt Q15116); details: across all doses, 0.3 mg/kg to 10 mg/kg; cited from earlier work
T1 construct: PD-1 occupancy appears to be dose-independent in this dose range
T1 sequence (Q15116 25-288): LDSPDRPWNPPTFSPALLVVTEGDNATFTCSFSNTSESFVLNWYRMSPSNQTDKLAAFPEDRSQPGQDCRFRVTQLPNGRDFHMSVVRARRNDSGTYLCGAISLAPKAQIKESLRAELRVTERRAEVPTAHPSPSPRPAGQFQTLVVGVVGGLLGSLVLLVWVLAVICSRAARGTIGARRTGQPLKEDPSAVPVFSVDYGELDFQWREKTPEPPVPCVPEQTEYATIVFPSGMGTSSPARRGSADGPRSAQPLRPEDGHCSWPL

Question: Which results are given for Nivolumab?
Answer: OS, median ([1]; All Pts): 8.57 months; PFS, median ([1]; All Pts): 2.00 month; ORR ([1]; All Pts (N 270)): 20.0%; ORR ([1]; All Pts, PD-L1 1%): 25.0%; OS, median ([1]; All Pts, PD-L1 1%): 11.63 months; PFS, median ([1]; All Pts, PD-L1 1%): 3.53 month; ORR ([1]; All Pts, PD-L1 <1%): 15.8%; OS, median ([1]; All Pts, PD-L1 <1%): 5.95 months; PFS, median ([1]; All Pts, PD-L1 <1%): 1.87 month; ORR ([1]; TMB High): 31.9%; OS, median ([1]; TMB High): 11.63 months; PFS, median ([1]; TMB High): 3.02 month; ORR ([1]; TMB High, PD-L1 1%): 33.3%; OS, median ([1]; TMB High, PD-L1 1%): 10.60 months; PFS, median ([1]; TMB High, PD-L1 1%): 3.52 month; ORR ([1]; TMB High, PD-L1 <1%): 30.4%; PFS, median ([1]; TMB High, PD-L1 <1%): 3.02 month; ORR ([1]; TMB Low): 10.9%; OS, median ([1]; TMB Low): 5.72 months; PFS, median ([1]; TMB Low): 1.91 month; ORR ([1]; TMB Low, PD-L1 1%): 23.8%; OS, median ([1]; TMB Low, PD-L1 1%): 8.57 months; PFS, median ([1]; TMB Low, PD-L1 1%): 3.12 month; ORR ([1]; TMB Low, PD-L1 <1%): 0%; OS, median ([1]; TMB Low, PD-L1 <1%): 4.96 months; PFS, median ([1]; TMB Low, PD-L1 <1%): 1.77 month; ORR ([1]; TMB Medium): 17.4%; OS, median ([1]; TMB Medium): 9.66 months; PFS, median ([1]; TMB Medium): 1.87 month; ORR ([1]; TMB Medium, PD-L1 1%): 12.0%; OS, median ([1]; TMB Medium, PD-L1 1%): 11.30 months; PFS, median ([1]; TMB Medium, PD-L1 1%): 1.94 month; ORR ([1]; TMB Medium, PD-L1 <1%): 23.8%; OS, median ([1]; TMB Medium, PD-L1 <1%): 4.53 months; PFS, median ([1]; TMB Medium, PD-L1 <1%): 1.77 month; OS, median ([1]; TMB Subgroup): 7.23 months; PFS, median ([1]; TMB Subgroup): 2.00 month; ORR ([1]; TMB Subgroup (N 139)): 20.1%; ORR ([1]; TMB Subgroup, PD-L1 1%): 22.9%; OS, median ([1]; TMB Subgroup, PD-L1 1%): 10.28 months; PFS, median ([1]; TMB Subgroup, PD-L1 1%): 2.30 month; ORR ([1]; TMB Subgroup, PD-L1 <1%): 17.4%; OS, median ([1]; TMB Subgroup, PD-L1 <1%): 5.68 months; PFS, median ([1]; TMB Subgroup, PD-L1 <1%): 1.87 month; median PFS ([2]; TMB≥10 mutations/Mb and ≥1% PD-L1 expression): 4.2 months; median PFS ([2]; TMB≥13 mutations/Mb and ≥1% PD-L1 expression): 4.2 months; mean PD-1 occupancy rate (PD-1): 85%; mean plateau PD-1 occupancy (PD-1): 72%

Source: patent US20250059610A1, “METHODS OF TREATING TUMOR” (priority 2017, published 2025)
